Laboratory results: article PMC9919490, “Synthesis and Biological Evaluation of Novel Dispiro-Indolinones with Anticancer Activity” (Molecules, 2023)

How the values were obtained:
Format in all cases: cell-based
LNCaP cells = assay: MTT cytotoxicity assay, LNCaP (p53 pos); conditions: 48 h
Description: (§1) The synthesized compounds were tested for their ability to block the proliferation of the selected model cell lines: LNCaP (p53+), PC3 (p53-), HCT^wt (p53+), and HCT^−/− (p53-) cells. The assay was carried out using the standard MTT (3-(4,5-dimethylthiazol-2-yl)2,5-diphenyl tetrazolium bromide) assay based on the modified approach reported by Ferrari and colleagues. […] Differences in IC50 values against these cell lines were used to assess the selectivity of the compounds.
(§2) Model cell lines were purchased from the in stock collection of the N.N. Blokhin Russian Cancer Research Center (RAMS). Cells were accurately maintained in the recommended media, supplemented with 10% heat-inactivated FBS (Invitrogen) and 2 mmol/L L-glutamine (Invitrogen).
(§3) First, 4000 cells per well were plated out in 140 µL of DMEM (with 10% FBS) in 96-well plates and incubated in 5% CO2 for 24 h at 37 °C without treatment. […] The cells were treated for 48 h with […] (eight dilutions) concentrations of the substances (each in triplicate) or doxorubicin (0.3 nM–600 nM, eight dilutions) as a control substance. After the incubation, 15 µL of MTT solution in PBS (5 mg/mL) was added, and the cells were incubated for 2 h, followed by removal of the media and addition of 120 µL of DMSO. […] Cell survival rates were determined by the comparison of optical density with the corresponding untreated control cell culture. Dose-dependent curves and the corresponding IC50 values were calculated using “GraphPad Prism 6” software (GraphPad Software, Inc., San Diego, CA, USA).

PC3 cells = assay: MTT cytotoxicity assay, PC3 (p53 neg)
Description: as §1, §2, §3

HCT^wt cells = assay: MTT cytotoxicity assay, HCT^wt (p53 pos); conditions: 48 h
Description: as §1, §2, §3

HCT^−/− cells = assay: MTT cytotoxicity assay, HCT^−/− (p53 neg); conditions: 48 h
Description: as §1, §2, §3

SMILES | IC50 (LNCaP cells) [µM] | IC50 (PC3 cells; 48 h) [µM] | IC50 (HCT^wt cells) [µM] | IC50 (HCT^−/− cells) [µM] | IC50 (LNCaP cells; Homo sapiens, LNCaP) [µM] | IC50 (PC3 cells; Homo sapiens, PC-3, 48 h) [µM]
COc1ccc([C@H]2CN(C)[C@@]3(C(=O)Nc4ccccc43)[C@@]23NC(=S)N(c2ccc(F)c(Cl)c2)C3=O)cc1OC (racemic) [Compound 44] | 8.6 ± 1.8 | 10.2 ± 2.3 | 35 ± 16.2 | > 100 | – | –
CN1C[C@H](c2ccc(Cl)cc2)[C@]2(NC(=S)N(c3ccc(F)cc3)C2=O)[C@]12C(=O)Nc1ccc(Br)cc12 (racemic) [Compound 40] | > 100 | > 100 | > 100 | > 100 | – | –
CN1C[C@H](C2CCCCC2)[C@]2(NC(=S)N(c3ccccc3)C2=O)[C@]12C(=O)Nc1ccc(Br)cc12 (racemic) [Compound 26] | > 100 | > 100 | – | – | – | –
CN1C[C@H](c2ccccn2)[C@]2(NC(=S)N(c3ccccc3)C2=O)[C@]12C(=O)Nc1ccc(Br)cc12 (racemic) [Compound 17] | > 100 | > 100 | 5.6 ± 2.3 | 7.6 ± 3.2 | – | –
CCOc1ccc(N2C(=O)[C@]3(NC2=S)[C@@H](c2ccc(Cl)c(Cl)c2)CN(C)[C@@]32C(=O)Nc3ccccc32)cc1 (racemic) [Compound 27] | > 100 | > 100 | > 100 | > 100 | – | –
CN1C[C@H](c2ccncc2)[C@]2(NC(=S)N(c3ccccc3)C2=O)[C@]12C(=O)Nc1ccc(Br)cc12 (racemic) [Compound 20] | > 100 | > 100 | > 100 | > 100 | – | –
CN1C[C@H](C2CCCCC2)[C@]2(NC(=S)N(c3ccccc3)C2=O)[C@]12C(=O)Nc1ccccc12 (racemic) [Compound 25] | > 100 | > 100 | – | – | – | –
C#CCOc1ccc(N2C(=O)[C@]3(NC2=S)[C@@H](c2ccc(Cl)cc2)CN(C)[C@@]32C(=O)Nc3ccccc32)cc1 [Compound 35] | – | – | > 100 | > 100 | > 100 | > 100
C#CCOc1ccc([C@H]2CN(C)[C@@]3(C(=O)Nc4ccc(Br)cc43)[C@@]23NC(=S)N(c2ccc(OCC)cc2)C3=O)cc1 (racemic) [Compound 34] | > 100 | > 100 | > 100 | > 100 | – | –
CN1C[C@H](c2cccc(Cl)c2)[C@]2(NC(=S)N(c3ccccc3)C2=O)[C@]12C(=O)Nc1ccccc12 (racemic) [Compound 14] | > 100 | > 100 | – | – | – | –
CCOc1ccc([C@H]2CN(C)[C@@]3(C(=O)Nc4ccccc43)[C@@]23NC(=S)N(c2ccc(F)cc2)C3=O)cc1 (racemic) [Compound 60] | > 100 | > 100 | – | – | – | –
COc1ccc(N2C(=O)[C@]3(NC2=S)[C@@H](c2cccc(Cl)c2)CN(C)[C@@]32C(=O)Nc3ccc(Br)cc32)cc1Cl (racemic) [Compound 59] | > 50 | > 50 | – | – | – | –
CCOc1ccc([C@H]2CN(C)[C@@]3(C(=O)Nc4ccc(Br)cc43)[C@@]23NC(=S)N(c2ccc(F)cc2)C3=O)cc1 (racemic) [Compound 61] | > 100 | > 100 | – | – | – | –
COc1ccc([C@H]2CN(C)[C@@]3(C(=O)Nc4ccc(Br)cc43)[C@@]23NC(=S)N(c2ccc(F)c(Cl)c2)C3=O)cc1OC (racemic) [Compound 45] | > 100 | > 100 | – | – | – | –
COc1ccc(N2C(=O)[C@]3(NC2=S)[C@@H](c2cccc(Cl)c2)CN(C)[C@@]32C(=O)Nc3ccccc32)cc1Cl (racemic) [Compound 58] | > 100 | > 100 | – | – | – | –
C=CCN1C(=O)[C@]2(NC1=S)[C@@H](c1cccc(Cl)c1)CN(C)[C@@]21C(=O)Nc2ccccc21 (racemic) [Compound 68] | > 50 | > 50 | – | – | – | –
CN1C[C@H](c2ccccc2Cl)[C@]2(NC(=S)N(c3ccccc3)C2=O)[C@]12C(=O)Nc1ccc(Br)cc12 (racemic) [Compound 10] | > 100 | > 100 | – | – | – | –
C=CCN1C(=O)[C@]2(NC1=S)[C@@H](c1ccccn1)CN(C)[C@@]21C(=O)Nc2ccccc21 (racemic) [Compound 67] | > 50 | > 50 | – | – | – | –
